Assay [1] concerns the target T1, Ferroportin (Mus musculus) (UniProt Q9JHI9).
T1 sequence (whole entry): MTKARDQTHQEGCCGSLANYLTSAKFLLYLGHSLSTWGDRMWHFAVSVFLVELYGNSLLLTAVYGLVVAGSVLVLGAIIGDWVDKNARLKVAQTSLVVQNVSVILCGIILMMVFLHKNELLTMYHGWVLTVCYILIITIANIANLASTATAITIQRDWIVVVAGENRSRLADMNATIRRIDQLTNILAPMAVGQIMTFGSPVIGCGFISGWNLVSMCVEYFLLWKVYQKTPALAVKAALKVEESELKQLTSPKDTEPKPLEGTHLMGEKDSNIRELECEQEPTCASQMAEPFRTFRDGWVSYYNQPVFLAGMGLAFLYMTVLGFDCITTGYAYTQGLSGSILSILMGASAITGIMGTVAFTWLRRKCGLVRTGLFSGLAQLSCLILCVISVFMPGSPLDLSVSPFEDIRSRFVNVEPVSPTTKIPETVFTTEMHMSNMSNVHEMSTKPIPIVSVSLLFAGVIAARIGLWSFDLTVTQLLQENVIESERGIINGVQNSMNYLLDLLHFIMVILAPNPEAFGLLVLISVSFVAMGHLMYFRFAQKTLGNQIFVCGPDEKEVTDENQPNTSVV
Nature of the assay: Inhibition of ferroportin in mouse J774 cells assessed as induce ferroportin ubiquitination and degradation at 0.04 uM incubated for 10 mins by immunoprecipitation assay. Type of assay: cell-based.

Assay [2] has as its target T1, Ferroportin (Mus musculus). Kind of assay: Inhibition of ferroportin in mouse J774 cells assessed as induce ferroportin ubiquitination and degradation at 0.04 uM incubated for 120 mins by immunoprecipitation assay. The assay is classed as cell-based.
The target of assay [3] is T1, Ferroportin (Mus musculus). Nature of the assay: Inhibition of ferroportin in mouse J774 cells assessed as induce ferroportin ubiquitination and degradation at 1.5 uM incubated for 10 mins by immunoprecipitation assay. Type of assay: cell-based.
For assay [4], the target named is T1, Ferroportin (Mus musculus). Kind of assay: Inhibition of ferroportin in mouse J774 cells assessed as induce ferroportin ubiquitination and degradation at 1.5 uM incubated for 120 mins by immunoprecipitation assay. The assay is classed as cell-based.
Assay [5] deals with T1, Ferroportin (Mus musculus). Kind of assay: Inhibition of ferroportin in mouse J774 cells assessed as induce ferroportin ubiquitination and degradation at 0.2 uM incubated for 10 mins by immunoprecipitation assay. The assay is classed as cell-based.
Assay [6] deals with T1, Ferroportin (Mus musculus). Nature of the assay: Inhibition of ferroportin in mouse J774 cells assessed as induce ferroportin ubiquitination and degradation at 0.2 uM incubated for 120 mins by immunoprecipitation assay. Type of assay: cell-based.
For assay [7], the system named is Mus musculus. Kind of assay: Prevention of hyperferremia in iron overloaded beta2-microglobulin deficient female mouse assessed as reduction in serum iron level at 60 mg/kg, po measured after 3 hrs relative to control. The assay is classed as functional. Further details: scale not given: the % may be the effect or the level left.
Assay [8] deals with Mus musculus. Nature of the assay: Prevention of hyperferremia in iron overloaded beta2-microglobulin deficient male mouse assessed as reduction in serum iron level at 60 mg/kg, po measured after 3 hrs relative to control. Type of assay: functional. Further details: scale not given: the % may be the effect or the level left.
Assay [9] has as its target T1, Ferroportin (Mus musculus). Kind of assay: Inhibition of ferroportin in mouse J774 cells assessed as induce ferroportin ubiquitination and degradation at 0.05 uM incubated for 10 mins by immunoprecipitation assay. Type of assay: cell-based.
Assay [10] concerns the target T1, Ferroportin (Mus musculus). Kind of assay: Inhibition of ferroportin in mouse J774 cells assessed as induce ferroportin ubiquitination and degradation at 0.05 uM incubated for 120 mins by immunoprecipitation assay. Type of assay: cell-based.
The target in assay [11] is T1, Ferroportin (Mus musculus). Kind of assay: Inhibition of ferroportin in mouse J774 cells assessed as induce ferroportin ubiquitination and degradation at 0.5 uM incubated for 10 mins by immunoprecipitation assay. Type of assay: cell-based.
Assay [12] has as its target T1, Ferroportin (Mus musculus). Kind of assay: Inhibition of ferroportin in mouse J774 cells assessed as induce ferroportin ubiquitination and degradation at 0.5 uM incubated for 120 mins by immunoprecipitation assay. Type of assay: cell-based.

Calls of active or inactive are those of the source. The calls are words filed in the database; no cut-off is given here.

In the case of `O=C(NCc1ncccc1F)c1csc(CCN(CCc2nc3ccccc3[nH]2)CCc2nc3ccccc3[nH]2)n1`, the inhibition entry in assay [1] and in assay [2] was “Active” each time.
In the case of `O=C(NCc1ncccc1F)c1cnn(C2CN(CCc3nc4ccccc4[nH]3)C2)c1`, the inhibition entry in [3] and in [4] was “Active” throughout.
As to `O=C(NCc1ncccc1F)c1coc(C2CN(CCc3nc4ccccc4[nH]3)C2)n1`, the inhibition entry in [5] and in assay [6] was “Active” in each case. The values for the Activity with Mus musculus [7] and with Mus musculus [8] were 49% and 67%, respectively.
Take `O=C(NCc1ncccc1F)c1coc(CCN(CCc2nc3ccccc3[nH]2)CCc2nc3ccccc3[nH]2)n1`: the inhibition entry in assay [9] and in [10] was “Active” throughout.
Regarding `O=C(NCc1ncccc1F)c1coc(CCNCCc2nc3c(Cl)cccc3[nH]2)n1`, the inhibition entry in assay [11] and in [12] was “Active” in each case.

The record behind these values is ChEMBL document CHEMBL4419169, “Novel Ferroportin Inhibitors” (2018).
